US20260378560A1, “APPROACHES TO DESIGNING AND PERFORMING COMPRESSED BIOLOGICAL EXPERIMENTS AND SYSTEMS FOR IMPLEMENTING THE SAME” (EXVIVO LABS INC., priority 2023, published 2026)

Tests used:
[1] = test system: REH; assay: ATP-based luminescence cell viability (CellTiter Glo), drug response score, REH; set-up: scale not given here; conditions: for DRS from deconvolution: Target compression; for DRS, REH, None: no compression (individual drug)
From the text: (§1) As part of a screen, a drug could be screened at different concentrations ranging from a lowest concentration to a highest concentration. In such a scenario, multiple data structures may be obtained by the screening platform 210. […] With these multiple data structures, the analysis module 218 can generate a dose-response curve that describes the magnitude of the response of the biological target, as a function of exposure to different concentrations of the drug. Further, the analysis module 218 can calculate a metric that is indicative of the response of the biological target. In the event that the biological target is one of multiple biological targets that are introduced to the pools of drugs, the metric can be used by the screening platform 210 to better understand the relative magnitude of responses. One example of a metric is drug-response score (“DRS”). DRS can be calculated as a continuous function of multiple parameters of the non-linear dose-response curve, including the slope at the half-maximal effective concentration (also called “EC50”) and the top and bottom asymptotes of the dose-response curve. DRS can be calculated as follows: […]
(§2) where y is a continuous function of the variable dose x, a is the maximal response (i.e., the top asymptote of the curve), b is the slope of the curve, c is the IC50 (i.e., half-maximal inhibitory concentration), and d is the minimal response (i.e., the bottom asymptote of the curve). Other examples of metrics include those output by sigmoidal and Hill slide functions that, like DRS, incorporate multiple aspects of the dose-response curve into a continuous function.
(§3) Total cell viability was measured for each cancer cell line using an Adenosine TriPhosphate (“ATP”) assay, and more specifically an ATP-based luminescence assay (i.e., CellTiter Glo). Each cancer drug was screened at multiple concentrations ranging from one nanomolar (nM) to ten micromolar (UM) in order to generate a dose-response curve and calculate a drug response score (“DRS”) for each cancer cell line. The DRS was calculated as a continuous function of multiple parameters of the non-linear dose-response curve, including the slope at the half-maximal effective concentration (also called “EC50”) and the top and bottom asymptotes of the dose-response curve. […] After total cell viability was measured and DRS was calculated, the DRS of each cancer cell line in the pool was deconvolved for each cancer drug.
(§4) DRS for these anchor cell lines are bolded and italicized. Anchors can be identified based on frequency of the cell lines in pools with high DRS versus low DRS. At a high level, an anchor is predicted to be the cell line with the lowest individual DRS. In order to deconvolute individual cell line DRS values from pool DRS values, the anchor can start with an assumed DRS value of zero. Each pool can then be expressed as a polynomial of variables (cell lines in the pool) and constants (DRS value of the pool). The DRS value of each cell line can then be solved for using the anchor value and overlapping polynomial expressions. When multiple values are calculated for the final target solved from the polynomials, then the anchor has a non-zero value that can be determined based on the difference in the calculated value of the final target.
(§5) Each pool represented a co-culture of three cell lines (“Target Compression”).

[2] = test system: CCRF-HSB2; assay: ATP-based luminescence cell viability (CellTiter Glo), drug response score, CCRF-HSB2
From the text: as §1, §2, §3, §4, §5

[3] = test system: JURKAT; assay: ATP-based luminescence cell viability (CellTiter Glo), drug response score, JURKAT; conditions: Target compression
From the text: as §1, §2, §3, §4, §5

[4] = test system: REH; assay: Cell viability (CellTiter Glo), compressed perturbation pools with informed pool design, MAX-based deconvolution, REH; conditions: REH; for DRS: None (measured individually), informed pool design table; for DRS from MAX-based deconvolution: Samples, 7 Pick 3 informed perturbation pools; for DRS, REH, MAX: compressed perturbation pools, informed pool design, MAX-based deconvolution;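 for DRS from MAX-based deconvolution: higher DRS means a larger drug effect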
Procedure, shortened: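 Drugs dosed from 1 nM to 10 μM with ATP-luminescence viability, giving a DRS per drug. Pools designed by drug class, with same-class drugs in separate cohorts and clinically toxic pairs kept apart.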

[5] = test system: CCRF-CFM; assay: ATP-based luminescence cell viability (CellTiter Glo), drug response score, CCRF-CFM; set-up: scale not given here; conditions: for DRS from deconvolution: Sample compression, 5 Pick 3 pools; for drug response score (DRS): screened individually (Compress: None)
[6] = test system: MOLT-4; assay: ATP-based luminescence cell viability (CellTiter Glo), drug response score, MOLT-4
[7] = CCRF-HSB2, Sample compression, 5 Pick 3 pools
[8] = CCRF-HSB2, Target compression, 5 Pick 3 pools
[9] = CCRF-HSB2, Target compression, 6 Pick 3 pools
[10] = CCRF-HSB2, Target compression, 7 Pick 3 pools
[11] = MOLT-4, Sample compression, 5 Pick 3 pools
[12] = MOLT-4, Target compression, 5 Pick 3 pools
[13] = MOLT-4, Target compression, 6 Pick 3 pools
[14] = MOLT-4, Target compression, 7 Pick 3 pools

Compound: COc1c(OCCCN2CCOCC2)ccc2c1N=C(NC(=O)c1cnc(N)nc1)N1CCN=C21 [Copanlisib]
- DRS from deconvolution ([1]; 5 Pick 3 pools): 12.96
- DRS from deconvolution ([1]; 6 Pick 3 pools): 13.28
- DRS from deconvolution ([1]; 7 Pick 3 pools): 12.09
- DRS from deconvolution [2, 7]: 7.35
- DRS from deconvolution [2, 8]: 7.82
- DRS from deconvolution [2, 9]: 7.97
- DRS from deconvolution [2, 10]: 7.10
- DRS from deconvolution ([3]; 6 Pick 3 pools): 0.00
- DRS from deconvolution ([3]; 7 Pick 3 pools): 2.30
- DRS [4]: 1.63
- DRS from MAX-based deconvolution [4]: 2.12
- DRS from deconvolution [5]: 15.72
- drug response score (DRS) [5]: 15.14
- DRS from deconvolution [6, 11]: 12.24
- DRS from deconvolution [6, 12]: 11.02
- DRS from deconvolution [6, 13]: 8.72
- DRS from deconvolution [6, 14]: 9.83

Compound: COc1cc2ncnc(Nc3ccc(F)c(Cl)c3)c2cc1OCCCN1CCOCC1 [Gefitinib]
- DRS, REH, None [1]: 3.15
- DRS [4]: 0.00
- DRS from MAX-based deconvolution [4]: 0.00
- DRS, REH, MAX [4]: 4.06

Compound: N#Cc1ccnc(N2C(=O)CC[C@H]2C(=O)N(c2cncc(F)c2)[C@H](C(=O)NC2CC(F)(F)C2)c2ccccc2Cl)c1 [Ivosidenib]
- DRS from deconvolution ([1]; 5 Pick 3 pools): 0.53
- DRS from deconvolution ([1]; 6 Pick 3 pools): 0.58
- DRS from deconvolution ([1]; 7 Pick 3 pools): 0.49
- DRS from deconvolution [2, 7]: 1.52
- DRS from deconvolution [2, 8]: 1.74
- DRS from deconvolution [2, 9]: 1.53
- DRS from deconvolution [2, 10]: 1.61
- DRS from deconvolution ([3]; 6 Pick 3 pools): 0.84
- DRS from deconvolution ([3]; 7 Pick 3 pools): 0.70
- DRS [4]: 3.12
- DRS from MAX-based deconvolution [4]: 3.55
- DRS from deconvolution [5]: 0.99
- drug response score (DRS) [5]: 1.00
- DRS from deconvolution [6, 11]: 0.06
- DRS from deconvolution [6, 12]: 0.21
- DRS from deconvolution [6, 13]: 0.30
- DRS from deconvolution [6, 14]: 0.22

Compound: C=CC(=O)Nc1cc(Nc2nccc(-c3cn(C)c4ccccc34)n2)c(OC)cc1N(C)CCN(C)C [Osimertinib]
- DRS, REH, None [1]: 2.01
- DRS [4]: 0.10
- DRS from MAX-based deconvolution [4]: 0.00
- DRS, REH, MAX [4]: 0.00

Compound: Cc1[nH]c2ccccc2c1CCNCc1ccc(/C=C/C(=O)NO)cc1 [Panobinostat]
- DRS from deconvolution ([1]; 5 Pick 3 pools): 12.12
- DRS from deconvolution ([1]; 6 Pick 3 pools): 12.62
- DRS from deconvolution ([1]; 7 Pick 3 pools): 12.90
- DRS from deconvolution [2, 7]: 18.63
- DRS from deconvolution [2, 8]: 19.75
- DRS from deconvolution [2, 9]: 17.30
- DRS from deconvolution [2, 10]: 17.26
- DRS from deconvolution ([3]; 6 Pick 3 pools): 14.37
- DRS from deconvolution ([3]; 7 Pick 3 pools): 13.23
- DRS [4]: 3.01
- DRS from MAX-based deconvolution [4]: 3.96
- DRS from deconvolution [5]: 18.07
- drug response score (DRS) [5]: 17.50
- DRS from deconvolution [6, 11]: 14.56
- DRS from deconvolution [6, 12]: 15.32
- DRS from deconvolution [6, 13]: 15.84
- DRS from deconvolution [6, 14]: 14.94

Compound: CC1(C)CCC(CN2CCN(c3ccc(C(=O)NS(=O)(=O)c4ccc(NCC5CCOCC5)c([N+](=O)[O-])c4)c(Oc4cnc5[nH]ccc5c4)c3)CC2)=C(c2ccc(Cl)cc2)C1 [Venetoclax]
- DRS from deconvolution ([1]; 5 Pick 3 pools): 1.56
- DRS from deconvolution ([1]; 6 Pick 3 pools): 3.18
- DRS from deconvolution ([1]; 7 Pick 3 pools): 1.88
- DRS from deconvolution [2, 7]: 0.00
- DRS from deconvolution [2, 8]: 0.00
- DRS from deconvolution [2, 9]: 0.00
- DRS from deconvolution [2, 10]: 0.00
- DRS from deconvolution ([3]; 6 Pick 3 pools): 0.00
- DRS from deconvolution ([3]; 7 Pick 3 pools): 1.88
- DRS [4]: 4.37
- DRS from MAX-based deconvolution [4]: 0.00
- DRS, REH, MAX [4]: 4.43
- DRS from deconvolution [5]: 0.50
- drug response score (DRS) [5]: 1.10
- DRS from deconvolution [6, 11]: 1.26
- DRS from deconvolution [6, 12]: 0.87
- DRS from deconvolution [6, 13]: 2.79
- DRS from deconvolution [6, 14]: 2.98
